The subject of one experiment is MOLT4. The experiment is described as follows: Viability, resazurin, 6 days. As to conditions: Homo sapiens, MOLT-4, 144 h, MOLT4, ALL. It is filed as cell-based. The procedure:
Cells were plated at 5000–10000 cells per well of 96-well plates containing titrations of the compounds as indicated. After incubation, the cells were incubated with 500 μg/ml resazurin (Sigma) in PBS for 2–8 hr, and fluorescence was measured (Ex 530 nm, Em 590 nm). Cell cycle analysis was performed as described previously ([Mertz et al., 2011]). For visualization, DNA content histograms were generated with GraphPad Prism. Dose-response curves were generated by plotting the normalized percent growth, percent sub-G1 and percent increase in G0/G1 at each dose values. GI50 values were determined as the concentration at which viability was 50% of the DMSO value and calculated by a four-parameter non-linear regression model in GraphPad Prism.
For orientation: Resazurin is reduced to fluorescent resorufin, in cell work by metabolically active cells.

In experiment [1] the target is T1, first bromodomain of BRD4 (BRD4-BD1) (Homo sapiens, UniProt O60885).
T1 construct: the first bromodomain of BRD4 (BRD4-BD1)
The experiment is described as follows: AlphaLISA, acetylated peptide binding to BRD4-BD1. The protocol: Compound at varying concentrations were dispensed into 384 well Proxiplates (Perkin Elmer) using Echo technology (Labcyte, Inc.; Sunnyvale, CA). For CBP assays, 0.5 μM His-Flag-tagged CBP bromodomain (amino acids 1082–1197) was incubated with 0.003 μM H4-TetraAc-biotin for 20 min at room temperature in 1x reaction buffer (50 mM HEPES pH 7.5, 1 mM TCEP, 0.069 mM Brij-35, 150 mM NaCl, and 0.1 mg/ml BSA). Streptavidin acceptor beads and nickel donor beads (Perkin Elmer) were added to 15 μg/ml with a Combi Multidrop dispenser. Plates were sealed and incubated at 90 min in the dark at room temperature, and plates were read on an Envision plate reader (Perkin Elmer) according to manufacturer’s instructions. For the BET assays, the protocol was similar except that BET family bromodomains were used at 0.03 μM (BRD4-BD1) and incubated with 0.2 μM H4-TetraAc-biotin for 20 min in reaction buffer (40 mM HEPES pH7.0, 1 mM DTT, 0.069 mM Brij-35, 40 mM NaCl, and 0.1 mg/ml BSA). Streptavidin donor beads and Anti-Flag Acceptor beads (Perkin Elmer) were added to 10 μg/ml, and then plates were sealed and incubated in the dark for 60 min prior to reading on the Envision.
A general note: Alpha assays give light when donor and acceptor beads are brought close together.

Another experiment deals with MYC mRNA. Put plainly: MYC mRNA expression, qRT-PCR. Format: cell-based, human. The following applies: for IC50: Homo sapiens, read-out: IC50, inhibition of MYC mRNA expression; for log2FC (MYC): 2.5 μM, 6 hr, log2 fold change relative to DMSO. The procedure:
(§1) Total RNA was prepared with an RNeasy Mini Kit (Qiagen, Inc.; Hilden, Germany) with on column DNAse digestion and submitted to Ocean Ridge Biosciences (Palm Beach Gardens, FL) for sequencing and mapping. The data in RPKM for each gene with compound treatment was compared to DMSO treatment, and log2 fold changes were used for further analysis. Rank ordered gene lists were used for Gene Set Enrichment Analysis ([Subramanian et al., 2005]). RNA preparation, cDNA synthesis, and qRT-PCR were performed as described ([Mertz et al., 2011]). For dose titration experiments, cells in 96 -well plates were lysed in lysis buffer (1% Triton X-100, […] pH 2.5) and used directly for cDNA synthesis and qRT-PCR. Primer sequences can be found in Supplementary file 1.
In general terms: Quantitative PCR measures a nucleic acid by following its amplification.

For experiment [2], the target named is T2, full length BRD4 ZsGreen fusion protein (Homo sapiens, UniProt O60885).
T2 construct: CBP: CBP-bromodomain/BRD9; BRD4: full length BRD4; expressed in transfected cells
Put plainly: Bromodomain chromatin release assay, BRD4 (U2OS, high content imaging). It is filed as cell-based. The following applies: 2 hr, n = 2 biological replicates ± SEM, read-out: IC50 (μM), BRD4 chromatin release (EC50). The procedure: As described previously ([Huang et al., 2014]), this assay monitors the compound-dependent release and aggregation of a fusion protein consisting of a bromodomain and the fluorescent protein ZsGreen. For the BRD4 chromatin release assay, U2OS cells capable of inducibly expressing the full-length BRD4 protein in fusion with ZsG were generated using the pLVT3G/ZsGreen-BRD4/TO3G vector and maintained in blasticidin at 15 μg/ml. […] Therefore, the bromodomain (BD) of CBP was cloned into full length BRD9 (replacing the BRD9 BD) in frame with a ZsGreen fluorescent tag (ZsG). U2OS cells capable of inducibly expressing the ZsGreen-CBPBD fusion protein were generated by lentiviral delivery of the pLVT3G/BRD9-ZsG-CBPBD/TO3G vector, which contains both the inducible fusion protein and the tet transactivator. Cells were selected and maintained in the presence of 15 μg/ml blasticidin. 5000 cells/well were seeded in 384-well imaging plates in the presence of 2 μg/ml doxycycline to induce the expression of ZsG-fusion proteins. After 16 hr of incubation with doxycycline, fresh media containing serial dilution of compounds were added to the cells for 2 hr at 37°C. Cells were fixed with 4% paraformaldehyde (PFA) dissolved in PBS for 15 min at room temperature. Images of cells were acquired using ImageXpress Micro (Molecular Devices, Inc.; Sunnyvale, CA) and processed with the Transfluor Module of MetaXpress software. Average pits per cell values were obtained from four adjacent images in each well with two technical replicates for each compound concentration. Dose-response curves were generated by plotting the average pits per cell values at each dose and EC50 values were calculated by a four-parameter non-linear regression model in GraphPad Prism.

In a further experiment the test system is IRF4 mRNA. Put plainly: IRF4 mRNA expression, qRT-PCR. Format: cell-based, human. The following applies: for IC50: Homo sapiens, read-out: IC50, inhibition of IRF4 mRNA expression; for log2FC (IRF4): 2.5 μM, 6 hr, log2 fold change relative to DMSO. The procedure:
as §1

The subject of experiment [3] is H3K18 and H3K27 acetylation in LP-1 cells. Put plainly: Western analysis of global histone acetylation. The following applies: LP-1, 16 hr. Format: cell-based, human. The procedure: Whole cell extracts were prepared by lysis in RIPA buffer + EDTA (Boston Bioproducts, Inc.; Ashland, MA) with protease inhibitor cocktail (Roche Life Sciences; Indianapolis, IN). Extracts were subjected to SDS-PAGE and Western analysis with MYC (Cell Signaling (Danvers, MA) #5605), IRF4 (Cell Signaling #4964 or #4948), GAPDH (Life Technologies AM4300), CBP (Santa Cruz (Dallas, TX) sc-369), EP300 (Santa Cruz sc-584), or β-actin (Life Technologies AM4302) primary antibodies. For histone analysis, extracts were prepared by sulfuric acid extraction of permeablized nuclei, and extracted histones were subjected to SDS-PAGE and Western analysis with H3K18ac (Cell Signaling #9675), H3K27ac (EMD Millipore (Billerica, MA) 07–360), or H4 (Abcam (Cambridge, MA) 31830). Blots were incubated with DyLight conjugated secondary antibodies, imaged and quantified with a Licor fluorescence imager (Licor, Inc.; Lincoln, NE), or with HRP- conjugated secondary antibodies for ECL visualization.

Like-named read-outs stand apart in the source and are kept apart here.

In general, GI50 refers to the concentration giving 50% growth inhibition. A word on the IC50: it is the concentration that inhibits the measured activity by half. In general, EC50 refers to the concentration giving half of the maximal effect. In the case of `CCC(=O)N1CCOc2c(cc(-c3ccc(OC)c(OC)c3)cc2OC[C@H]2CCCN(C)C2)C1` [I-CBP112], in the experiment with MOLT4, the 50% growth inhibitory concentration (GI50) was > 20 µM. Moreover, the half-inhibitory concentration (IC50) in experiment [1] came out at 8.9 ± 0.06 µM; in the experiment on MYC mRNA (OPM-2, OPM2, 6 hr), 6.1 µM; in the experiment on MYC mRNA (LP-1, 6 hr), 11.3 µM; in the experiment on IRF4 mRNA (OPM-2, OPM2, 6 hr) it was 2900 nM; in the experiment with IRF4 mRNA (LP-1, 6 hr) it was 2000 nM. Besides, the half-maximal effective concentration (EC50) in experiment [2] was > 20 µM.
In turn, `COc1ccc(CCc2nc3cc(-c4c(C)noc4C)ccc3n2C[C@H](C)N2CCOCC2)cc1Cl` [SGC-CBP30] had a concentration for 50% growth inhibition (GI50) in the experiment on MOLT4 of 7.62 µM. Further, the “changes in the global levels of H3K18 or H3K27 acetylation” value in experiment [3] was “did not observe any significant changes”. The IC50 in experiment [1] stood at 2.1 ± 0.3 µM; with MYC mRNA (OPM-2, OPM2, 6 hr), 2.3 µM; in the experiment on MYC mRNA (LP-1, 6 hr), 2.5 µM; with IRF4 mRNA (OPM-2, OPM2, 6 hr) it was 1100 nM; in the experiment with IRF4 mRNA (LP-1, 6 hr), 860 nM. The “log2FC (MYC)” value in the experiment on MYC mRNA (AMO1) is -1.13; in the experiment with MYC mRNA (H929), -1.24; in the experiment on MYC mRNA (KMM1) it was -0.48; in the experiment with MYC mRNA (KMS28BM), -0.63; in the experiment with MYC mRNA (LP1) it was -1.07; in the experiment with MYC mRNA (MOLP8) it was -0.64. For the same compound, the results for the “log2FC (MYC)” value in the experiment on MYC mRNA (OPM2), in the experiment with MYC mRNA (RPMI8226) and with MYC mRNA (RS411) were -0.71, -0.49 and -0.56, respectively. For the same compound, the EC50 in experiment [2] is 18.7 ± 1.2 µM. The “log2FC (IRF4)” value in the experiment on IRF4 mRNA (AMO1) was -1.36; with IRF4 mRNA (H929), -0.75; in the experiment on IRF4 mRNA (KMM1), -0.53; with IRF4 mRNA (KMS28BM) it was -0.93; in the experiment with IRF4 mRNA (LP1), -1.23; in the experiment on IRF4 mRNA (MOLP8) it was -1.29. Moreover, the figures for the “log2FC (IRF4)” value with IRF4 mRNA (OPM2), in the experiment with IRF4 mRNA (RPMI8226) and with IRF4 mRNA (RS411) were -0.98, -0.55 and -0.31, respectively. The “time to suppression of IRF4 after addition of compound” value in the experiment on IRF4 mRNA (LP-1, 2.5 μM) was ≤ 2 h.

Values taken from publication PMC4775225, “Bromodomain inhibition of the transcriptional coactivators CBP/EP300 as a therapeutic strategy to target the IRF4 network in multiple myeloma” (eLife, 2016).
